In patent US20080221134A1, “8-ALKYNYLXANTHINES AND DERIVATIVES” (priority 2006, published 2008):

Legend:
[1] = test system: Reserpine induced catalepsy; experiment: Acute Reserpine induced catalepsy test; type: in vivo, rat; settings: vs only Reserpine-treated animals
Procedure: Animals were administered with Reserpine or CGS-21680 according to methods known to the skilled person in the art. These models and procedures are e.g. described by Ferré S. et al., Neurosci. Let., 1991, 130, 162; Ferré S. et al., Neuroscience, 1992, 51, 501; Kafka S. H. et al., Eur. J. Pharmacol., 1996, 295, 147; Rimondini R. et al., Neuropsychopharmacology, 1997, 17, 82 and are herein incorporated by reference. In the acute CGS-21680 induced catalepsy model (CGS model) the test compounds (TC, compounds according to the present invention) and CGS-21680 (i.p. 2 mg/kg) were administered 60 minutes before the start of the catalepsy bar measurement and behavioural testing described below (see also FIG. 1). In the acute Reserpine induced catalepsy model (RES model Resperine (subcutaneously, 3 mg/kg) was injected 24 h prior to the test compound application. Catalepsy bar measurement took place 60 minutes after test compound application (see FIG. 1). Test compounds were administered i.p. in DMSO in following doses (mg/kg): 0.1, 0.3, 1, 3, 10.
Dimethylsulfoxide (DMSO) was used as vehicle for the test compounds and Reserpine. Reserpine was dissolved in DMSO in a concentration of 3 mg/ml. A 10% (w/v) Cyclodextrin solution was used as vehicle for CGS-21680. CGS 21680 was dissolved in 10% (w/v) Cyclodextrine in a concentration of 2 mg/ml.
Apomorphine was used as a reference compound in the Reserpine induced catalepsy model. Apomorphine injection solution was diluted with purified water to a concentration of 0.3 mg/ml. The solution was administered subcutaneously (s.c.) in a volume of 1 ml/kg (0.3 mg/kg) 20 minutes before the begin of testing after Reserpine pre-treatment (25 hours prior to testing).
The catalepsy bar after Reserpine administration was measured (CAT) as follows: The rat was placed with its forepaws on a log of wood. […] The animal was tested for three trials and the time for each trial was noted. The following parameters were calculated: maximum time to descend (s) and median time to descend (s). […]
All statistical tests were performed two tailed with a value of p<0.05 considered as significant.
To assess the effects of CGS-21680 and Reserpine pre-treatment compared to vehicle treated controls statistical comparisons between the test groups were performed using a U test statistic.
To assess the effects of test compounds on CGS-21680 and Reserpine pre-treated animals correlation analyses including animals from test groups and the respective test compound-treated groups were performed.
Additionally, parametric and non-parametric comparisons for the median catalepsy measure were performed to assess the reliability of the method. In case of parametric testing a GLM analyses was performed including animals from a control group (only vehicle treated animals) and the respective test compound-treated groups with dose as a categorical factor. In case of a significant result, a Dunnett's post hoc test was performed between the according test compound groups and a control group as reference group. In case of non-parametric testing a Kruskal-Wallis H-test was performed including animals from a control group and the respective test compound groups. In case of a significant result single U-test comparisons were performed between a control group and the groups treated with different doses of the test compound.

[2] = target: T1, A2A adenosine receptors from rat striatum (Rattus norvegicus, UniProt P30543); experiment: Sodium chloride-shift experiment; type: binding; settings: for Sodium Chloride-Shift Ki (+NaCl)/Ki (−NaCl): ratio
T1 construct: A2A adenosine receptors from rat striatum; from tissue; host or cells: rat striatum
Procedure: The compounds were tested in a sodium chloride-shift experiment of whether they are functionally coupled to A2A adenosine receptors from rat striatum. […] The presence of a relatively high concentration of sodium chloride should not influence the affinity of the antagonists. However, the affinity of A2A AR agonists should be attenuated and therefore lead to an elevated IC50-value. […] This confirms the A2A-antagonistic function of the compounds. (Gao et al, Biochem. Pharmacol., 2000, 60, 669, herein incorporated by reference).

[3] = Ki (+100 mM NaCl) rA2A rat striatum [3H] MSX-2 (n = 3), +100 mM NaCl
[4] = Ki rA2A rat striatum [3H] MSX-2 (n = 3), without NaCl

T1 sequence (P30543 whole entry): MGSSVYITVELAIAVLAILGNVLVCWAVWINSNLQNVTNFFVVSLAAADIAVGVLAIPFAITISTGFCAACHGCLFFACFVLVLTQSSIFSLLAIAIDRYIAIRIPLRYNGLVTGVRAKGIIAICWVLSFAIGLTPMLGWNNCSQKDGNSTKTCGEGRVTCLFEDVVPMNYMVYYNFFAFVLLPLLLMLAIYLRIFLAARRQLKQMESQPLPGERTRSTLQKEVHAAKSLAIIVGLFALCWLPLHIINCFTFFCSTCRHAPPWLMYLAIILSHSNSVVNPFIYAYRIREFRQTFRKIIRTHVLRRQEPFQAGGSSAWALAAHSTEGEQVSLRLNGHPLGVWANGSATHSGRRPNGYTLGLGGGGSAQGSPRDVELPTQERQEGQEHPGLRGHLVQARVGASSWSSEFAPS

| Ki [2, 3] | Ki [2, 4] | Sodium Chloride-Shift Ki (+NaCl)/Ki (−NaCl) [2] | SMILES | maximum catalepsy values after Reserpine treatment [1] | median catalepsy values after Reserpine treatment [1] |
| --- | --- | --- | --- | --- | --- |
|  |  |  | CN1CCc2cccc3c2[C@H]1Cc1ccc(O)c(O)c1-3 [apomorphine, Apomorphine, reference compound] | decreased | decreased |
| 33.2 ± 9.9 nM | 30.9 ± 8 nM | 0.97 ± 0.03 | C#CCn1c(=O)c2c(nc(C#Cc3cccc(OC)c3)n2C)n(C)c1=O [drawing 614] |  |  |
| 53.1 ± 5.9 nM | 43.4 ± 11.6 nM | 1.19 ± 0.16 | C#CCn1c(=O)c2c(nc(C#Cc3cccc(C)c3)n2C)n(C)c1=O [drawing 615] |  |  |
| 39.5 ± 13.1 nM | 46 ± 9 nM | 0.82 ± 0.13 | C#CCn1c(=O)c2c(nc(C#Cc3cccc(Cl)c3)n2C)n(C)c1=O [drawing 616] |  |  |
